Laboratory results as given in patent publication US11992494B2, “Cyclopentathiophene carboxamide derivatives as platelet activating factor receptor antagonists” (Boehringer Ingelheim International GmbH, priority 2021, dated 2024).

Biological target: PAFR (Homo sapiens, UniProt P25105)
Test: cellular HTRF IP1 assay: inhibition of PAFR activation by PAF C-16 ligand (endpoint assay)
Assay type: cell-based
Parameters: expressed in transfected cells; host or cells: HEK293
Description: The ability of compounds of formula (I) to inhibit the activation of the PAF receptor (PAFR) by the PAF C-16 ligand (PAF) is determined using the following cellular HTRF IP1 assay (IP1 Gq assay kit from Cisbio, Cat. no.: 62IP1APEJ) in assay buffer (1×HBSS, 20 mM Hepes, pH 7.4, 50 mM LiCl and containing 0.1% (w/v) BSA):
Evaluation of the Inhibition of PAFR Activation Using an Endpoint Assay
HEK293 cells overexpressing human PAFR (produced in-house) are seeded into a Poly-D-Lysine coated 384 well white cell culture microtiter assay plate with lid (15.000 cells per well). Subsequently, the plates are incubated over night at 37° C./5% CO2. On the next day, cells are being washed and subsequently, various concentrations of the test compounds (compounds in 100% DMSO; final concentration of DMSO in wells is 1%) are added to the assay plate via Echo 555 acoustic liquid handler. Plates are then incubated with lid for 90 minutes at 37° C./5% CO2. Thereafter, PAF ligand (Cayman Chemical Company, Item no.: 60900) is added at a final concentration of 11 nM. Plates are then incubated with lid for 60 minutes at 37° C./5% CO2. Then, 5 μl per well of Anti-IP1-Antibody-Cryptate solution and 5 μl per well of IP1-d2 solution are added to all wells of the plate and the plate is incubated for another 60 minutes light protected at room temperature. The emissions at 620 nm and 665 nm (Excitation wavelength: 320 nm) are measured using an Envision Reader (PerkinElmer).

[1] = HEK293 cells overexpressing human PAFR, PAF ligand 11 nM, Table 2
[2] = dedicated head-to-head comparison assay run: cyclopropylene vs di-methyl / cyclobutylene analogues

Sequence of PAFR (P25105 whole entry): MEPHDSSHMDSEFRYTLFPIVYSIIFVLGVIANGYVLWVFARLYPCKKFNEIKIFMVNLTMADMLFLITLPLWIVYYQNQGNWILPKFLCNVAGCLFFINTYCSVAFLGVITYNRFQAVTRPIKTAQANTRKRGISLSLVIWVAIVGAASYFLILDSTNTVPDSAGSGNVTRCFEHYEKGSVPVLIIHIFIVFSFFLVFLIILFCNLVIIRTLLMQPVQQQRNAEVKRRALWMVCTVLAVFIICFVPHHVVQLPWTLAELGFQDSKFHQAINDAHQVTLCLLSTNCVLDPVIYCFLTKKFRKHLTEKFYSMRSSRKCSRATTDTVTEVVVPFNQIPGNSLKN

Cc1nnc2n1-c1sc3c(c1C(c1ccccc1Cl)=NC21CC1)C[C@H](C(=O)N1C[C@@H](C)O[C@H](C)C1)C3 [Example 123, (13′S)-9′-(2-chlorophenyl)-13′-[(2R,6R)-2,6-dimethylmorpholine-4-carbonyl]-3′-methyl-16′-thia-2′,4′,5′,8′-tetraazaspiro[cyclopropane-1,7′-tetracyclo[8.6.0.02,6.011,15]hexadecane]-1′(10′),3′,5′,8′,11′(15′)-pentaene]
IC50 [1]: 5 nM

Cc1nnc2n1-c1sc3c(c1C(c1ccccc1Cl)=NC21CC1)C[C@H](C(=O)N[C@@H]1COCC(F)(F)C1)C3 [Example 110]
IC50 [1]: 4.3 nM

Cc1nnc2n1-c1sc3c(c1C(c1ccccc1Cl)=NC21CC1)C[C@H](C(=O)N1CC2(CCCO2)C1)C3 [Example 126, (13′S)-9′-(2-chlorophenyl)-3′-methyl-13′-{5-oxa-2-azaspiro[3.4]octane-2-carbonyl}-16′-thia-2′,4′,5′,8′-tetraazaspiro[cyclopropane-1,7′-tetracyclo[8.6.0.0^2,6.0^11,15]hexadecane]-1′(10′),3′,5′,8′,11′(15′)-pentaene]
IC50 [1]: 9.4 nM

Cc1nnc2n1-c1sc3c(c1C(c1ccccc1Cl)=NC21CC1)C[C@H](C(=O)N[C@H]1C[C@H](S(C)(=O)=O)C1)C3 [Example 113]
IC50 [1]: 28 nM

Cc1nnc2n1-c1sc3c(c1C(c1ccccc1Cl)=NC21CC1)C[C@H](C(=O)NC1(C(F)(F)F)CC1)C3 [Example 16]
IC50 [1]: 4.1 nM

Cc1noc(C)c1NC(=O)[C@@H]1Cc2sc3c(c2C1)C(c1ccccc1Cl)=NC1(CC1)c1nnc(C)n1-3 [Example 128]
IC50 [1]: 5.7 nM
IC50 [2]: 5.5 nM

Cc1nnc2n1-c1sc3c(c1C(c1ccccc1Cl)=NC21CC1)C[C@H](C(=O)N[C@H]1CCc2cccc(F)c21)C3 [Example 53]
IC50 [1]: 0.5 nM

Cc1nnc2n1-c1sc3c(c1C(c1ccccc1Cl)=NC21CC1)C[C@H](C(=O)NC1CC2CCC(C1)O2)C3 (stereo partly drawn) [Example 90]
IC50 [1]: 8.8 nM

Cc1nnc2n1-c1sc3c(c1C(c1ccccc1Cl)=NC21CC1)C[C@H](C(=O)N(C)C1CCCCC1)C3 [Example 44]
IC50 [1]: 1.3 nM

Cc1nnc2n1-c1sc3c(c1C(c1ccccc1Cl)=NC21CC1)C[C@H](C(=O)N[C@@H]1CCc2cc(C#N)ccc21)C3 [Example 63]
IC50 [1]: 1.7 nM

Cc1nnc2n1-c1sc3c(c1C(c1ccccc1Cl)=NC21CC1)C[C@H](C(=O)N1C[C@H](C)O[C@@H](C)C1)C3 [Example 108, (13′S)-9′-(2-chlorophenyl)-13′-[(2S,6S)-2,6-dimethylmorpholine-4-carbonyl]-3′-methyl-16′-thia-2′,4′,5′,8′-tetraazaspiro[cyclopropane-1,7′-tetracyclo[8.6.0.0^2,6.0^11,15]hexadecane]-1′(10′),3′,5′,8′,11′(15′)-pentaene]
IC50 [1]: 4.6 nM

Cc1nnc2n1-c1sc3c(c1C(c1ccccc1Cl)=NC21CC1)C[C@H](C(=O)NC1CC(F)(F)C1)C3 [Example 27]
IC50 [1]: 2.1 nM

Cc1nnc2n1-c1sc3c(c1C(c1ccccc1Cl)=NC21CC1)C[C@H](C(=O)N[C@H]1COC[C@H]1C)C3 [Example 28]
IC50 [1]: 6.8 nM

Cc1nnc2n1-c1sc3c(c1C(c1ccccc1Cl)=NC21CC1)C[C@H](C(=O)N[C@H]1C[C@@H]1C)C3 [Example 12]
IC50 [1]: 2.2 nM

Cc1nnc2n1-c1sc3c(c1C(c1ccccc1Cl)=NC21CC1)C[C@H](C(=O)N1CC(C)(C)C1)C3 [Example 65]
IC50 [1]: 2.8 nM

Cc1nnc2n1-c1sc3c(c1C(c1ccccc1Cl)=NC21CC1)C[C@H](C(=O)NC1CCc2ncccc2C1)C3 (stereo partly drawn) [Example 97]
IC50 [1]: 8.9 nM

Cc1nnc2n1-c1sc3c(c1C(c1ccccc1Cl)=NC21CC1)C[C@H](C(=O)N1CCO[C@@H](C)C1)C3 [Example 106, (13′S)-9′-(2-chlorophenyl)-3′-methyl-13′-[(2S)-2-methylmorpholine-4-carbonyl]-16′-thia-2′,4′,5′,8′-tetraazaspiro[cyclopropane-1,7′-tetracyclo-[8.6.0.0^2,6.0^11,15]hexadecane}-1′(10′),3′,5′,8′,11′(15′)-pentaene]
IC50 [1]: 7.5 nM

Cc1nnc2n1-c1sc3c(c1C(c1ccccc1Cl)=NC21CC1)C[C@H](C(=O)N(C)[C@H]1c2ccccc2CC[C@@H]1O)C3 [Example 86]
IC50 [1]: 4 nM

Cc1nnc2n1-c1sc3c(c1C(c1ccccc1Cl)=NC21CC1)C[C@H](C(=O)N[C@@H]1CCOC1)C3 [Example 95]
IC50 [1]: 17 nM

Cc1nnc2n1-c1sc3c(c1C(c1ccccc1Cl)=N[C@H]2C)C[C@H](C(=O)N1CCOCC1)C3 [comparative example 1a, reference compound]
IC50 (S-bepafant and its methylated derivatives in the above-mentioned assay): 6.9 nM

Cc1nnc2n1-c1sc3c(c1C(c1ccccc1Cl)=NC21CC1)C[C@H](C(=O)NC1CCn2nccc2C1)C3 (stereo partly drawn) [Example 77]
IC50 [1]: 10 nM

Cc1cc2n(n1)CC(NC(=O)[C@@H]1Cc3sc4c(c3C1)C(c1ccccc1Cl)=NC1(CC1)c1nnc(C)n1-4)CC2 (stereo partly drawn) [Example 23]
IC50 [1]: 9.9 nM

Cc1nnc2n1-c1sc3c(c1C(c1cc(N)ccc1Cl)=NC21CC1)C[C@H](C(=O)N1CCOCC1)C3 [Example 6, 4-chloro-3-[(13′S)-3′-methyl-13′-(morpholine-4-carbonyl)-16′-thia-2′,4′,5′,8′-tetraazaspiro[cyclopropane-1,7′-tetracyclo[8.6.0.0^2,6.0^11,15]hexadecane]-1′(10′),3′,5′,8′,11′(15′)-pentaen-9′-yl]aniline]
IC50 [1]: 25 nM

Cc1nnc2n1-c1sc3c(c1C(c1ccccc1Cl)=NC21CC1)C[C@H](C(=O)NC1CCC1(C)C)C3 (stereo partly drawn) [Example 47]
IC50 [1]: 1.6 nM

Cc1nnc2n1-c1sc3c(c1C(c1ccccc1Cl)=NC21CC1)C[C@H](C(=O)N[C@H]1CCN(c2ncccn2)C1)C3 [Example 62]
IC50 [1]: 6.5 nM

CCN(C(=O)[C@@H]1Cc2sc3c(c2C1)C(c1ccccc1Cl)=NC1(CC1)c1nnc(C)n1-3)C1CCOCC1 [Example 83]
IC50 [1]: 6.9 nM

Cc1nnc2n1-c1sc3c(c1C(c1cc(C#N)ccc1Cl)=NC21CC1)C[C@H](C(=O)N1CCOCC1)C3 [Example 2, 4-chloro-3-[(13′S)-3′-methyl-13′-(morpholine-4-carbonyl)-16′-thia-2′,4′,5′,8′-tetraazaspiro[cyclopropane-1,7′-tetracyclo[8.6.0.0^2,6.0^11,15]hexadecane]-1′(10′),3′,5′,8′,11′(15′)-pentaen-9′-yl]benzonitrile]
IC50 [1]: 83 nM

Cc1nnc2n1-c1sc3c(c1C(c1ccccc1Cl)=NC21CC1)C[C@H](C(=O)N[C@H]1C[C@@H]1c1ccccc1)C3 [Example 17]
IC50 [1]: 1.2 nM

Cc1nnc2n1-c1sc3c(c1C(c1ccccc1Cl)=NC21CC1)C[C@H](C(=O)N[C@@H]1c2ccccc2C[C@@H]1O)C3 [Example 50]
IC50 [1]: 2.4 nM

Cc1nnc2n1-c1sc3c(c1C(c1ccccc1Cl)=NC21CC1)C[C@H](C(=O)NC1COCC(F)(F)C1)C3 (stereo partly drawn) [Example 43]
IC50 [1]: 3.7 nM

Cc1nnc2n1-c1sc3c(c1C(c1ccccc1O)=NC21CC1)C[C@H](C(=O)N1CCOCC1)C3 [Example 9, 2-[(13′S)-3′-methyl-13′-(morpholine-4-carbonyl)-16′-thia-2′,4′,5′,8′-tetraazaspiro[cyclopropane-1,7′-tetracyclo[8.6.0.0^2,6.0^11,15]hexadecane]-1′(10′),3′,5′,8′,11′(15′)-pentaen-9′-yl]phenol]
IC50 [1]: 52 nM

Cc1ccccc1C1=NC2(CC2)c2nnc(C)n2-c2sc3c(c21)C[C@H](C(=O)N1CCOCC1)C3 [Example 8, (13′S)-3′-methyl-9′-(2-methylphenyl)-13′-(morpholine-4-carbonyl)-16′-thia-2′,4′,5′,8′-tetraazaspiro[cyclopropane-1,7′-tetracyclo[8.6.0.0^2,6.0^11,15]hexadecane]-1′(10′),3′,5′,8′,11′(15′)-pentaene]
IC50 [1]: 8.4 nM

Cc1nnc2n1-c1sc3c(c1C(c1ccccc1Cl)=NC21CC1)C[C@H](C(=O)N[C@H]1COC[C@H]1c1ccccc1)C3 [Example 39]
IC50 [1]: 3.1 nM

Cc1nnc2n1-c1sc3c(c1C(c1ccccc1Cl)=NC21CC1)C[C@H](C(=O)N[C@@H]1C[C@H]1c1ccccc1)C3 [Example 60]
IC50 [1]: 1.3 nM

Cc1nnc2n1-c1sc3c(c1C(c1ccccc1Cl)=NC21CC1)C[C@H](C(=O)N[C@H]1CCc2c(F)cccc21)C3 [Example 92]
IC50 [1]: 0.9 nM

Cc1nnc2n1-c1sc3c(c1C(c1ccccc1Cl)=NC21CC1)C[C@H](C(=O)N[C@@H]1COC[C@@H]1C)C3 [Example 30]
IC50 [1]: 7.2 nM

Cc1nnc2n1-c1sc3c(c1C(c1ccccc1Cl)=NC21CC1)C[C@H](C(=O)NC1CCC12CCOCC2)C3 (stereo partly drawn) [Example 64]
IC50 [1]: 8.6 nM

CCn1ncc2c1CC[C@@H](NC(=O)[C@@H]1Cc3sc4c(c3C1)C(c1ccccc1Cl)=NC1(CC1)c1nnc(C)n1-4)C2 [Example 99]
IC50 [1]: 8.1 nM

CC(=O)N1CCC(N(C)C(=O)[C@@H]2Cc3sc4c(c3C2)C(c2ccccc2Cl)=NC2(CC2)c2nnc(C)n2-4)CC1 [Example 73]
IC50 [1]: 21 nM

Cc1nnc2n1-c1sc3c(c1C(c1ccccc1Cl)=NC2(C)C)C[C@H](C(=O)NC1CCc2cc(F)ccc21)C3 (stereo partly drawn) [reference compound]
IC50 [2]: 4.9 nM

Cc1nnc2n1-c1sc3c(c1C(c1ccccc1Cl)=NC21CC1)C[C@H](C(=O)NC1(c2cncnc2)CC1)C3 [Example 117]
IC50 [1]: 28 nM
